Source: US8524917B2, “6-substituted indole-3-carboxylic acid amide compounds having sphingosine-1-phosphate (S1P) receptor antagonist biological activity” (Allergan, Inc., priority 2007, dated 2013)
pIC50: −log10 of the molar value. Like-named read-outs stand apart in the source and are kept apart here.

Molecular target: human S1P3 receptor (Homo sapiens (Human), UniProt Q99500)
Assay: Activation or block of activation of human S1P3 receptor, Ca+2 FLIPR assay
Type: cell-based
Conditions: for pIC50: read-out: S1P3 IC50
Method: Compounds were assessed for their ability to activate or block activation of the human S1P3 receptor in T24 cells stably expressing the human S1P3 receptor. Ten thousand cells/well were plated into 384-well poly-D-lysine coated plates one day prior to use. The growth media for the S1P3 receptor expressing cell line was McCoy's 5A medium supplemented with 10% charcoal-treated fetal bovine serum (FBS), 1% antibiotic-antimycotic and 400 μg/ml geneticin. On the day of the experiment, the cells were washed twice with Hank's Balanced Salt Solution supplemented with 20 mM HEPES (HBSS/Hepes buffer). […] Extracellular dye was removed by washing the cell plates four times prior to placing the plates in the FLIPR (Fluorometric Imaging Plate Reader, Molecular Devices). Ligands were diluted in HBSS/Hepes buffer and prepared in 384-well microplates. The positive control, Sphingosine-1-Phosphate (S1P), was diluted in HBSS/Hepes buffer with 4 mg/ml fatty acid free bovine serum albumin. The FLIPR transferred 12.5 μl from the ligand microplate to the cell plate and took fluorescent measurements for 75 seconds, taking readings every second, and then for 2.5 minutes, taking readings every 10 seconds. […] IC50 values were determined through a […] analysis using the Levenburg Marquardt algorithm.

[1] = T24 cells stably expressing the human S1P3 receptor, second concentration in the cell, read-out: S1P3 Kb
[2] = T24 cells stably expressing the human S1P3 receptor, FLIPR Ca+2 response, 0.61 nM to 10,000 nM
[3] = T24 cells stably expressing the human S1P3 receptor, value in brackets

Sequence of human S1P3 receptor (Q99500 whole entry): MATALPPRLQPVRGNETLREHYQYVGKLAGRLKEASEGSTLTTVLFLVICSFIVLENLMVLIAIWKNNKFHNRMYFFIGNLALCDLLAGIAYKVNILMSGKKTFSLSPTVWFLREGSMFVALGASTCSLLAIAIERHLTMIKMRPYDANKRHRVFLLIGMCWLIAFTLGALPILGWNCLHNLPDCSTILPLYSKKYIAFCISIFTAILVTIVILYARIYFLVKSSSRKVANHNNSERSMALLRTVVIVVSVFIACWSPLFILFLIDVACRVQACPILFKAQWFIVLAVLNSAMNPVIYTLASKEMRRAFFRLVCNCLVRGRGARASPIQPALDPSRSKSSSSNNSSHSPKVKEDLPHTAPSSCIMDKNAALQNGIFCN

Row | Compound | Kb [1] [nM] | pIC50 [2] | S1P3 (% inh) [3] [%] | S1P3 (% inh) | pIC50 | Kb [nM]
1 | CC(C)Oc1ccc2c(C(=O)NCc3ccc(F)c(F)c3)c(C(C)C)n(Cc3ccccc3)c2c1 [Compound 11, 1-Benzyl-N-(3,4-difluorobenzyl)-6-isopropoxy-2-isopropyl-1H-indole-3-carboxamide] | 2 | – | – | – | – | –
2 | CCCCOc1ccc2c(C(=O)NCc3ccc(F)c(F)c3)c(C(C)C)n(Cc3ccccc3)c2c1 [Compound 12, 1-Benzyl-6-butoxy-N-(3,4-difluorobenzyl)-2-isopropyl-1H-indole-3-carboxamide] | – | 8.52 | 100 | – | – | –
3 | CC(C)COc1ccc2c(C(=O)NCc3ccc(F)c(F)c3)c(C(C)C)n(Cc3ccccc3)c2c1 [Compound 13, 1-Benzyl-N-(3,4-difluorobenzyl)-6-isobutoxy-2-isopropyl-1H-indole-3-carboxamide] | 1.6 | 8.92 | 100 | – | – | –
4 | CCCCCCOc1ccc2c(C(=O)NCc3ccc(F)c(F)c3)c(C(C)C)n(Cc3ccccc3)c2c1 [Compound 14, 1-Benzyl-N-(3,4-difluorobenzyl)-6-(hexoxy)-2-isopropyl-1H-indole-3-carboxamide] | – | – | – | 3.1 μM (96) % | 5.51 | –
5 | CC(C)c1c(C(=O)NCc2ccc(F)c(F)c2)c2ccc(OCc3ccccc3)cc2n1Cc1ccccc1 [Compound 15, 1-Benzyl-6-(benzyloxy)-N-(3,4-difluorobenzyl)-2-isopropyl-1H-indole-3-carboxamide] | – | – | – | 260 nM (100) % | 6.59 | –
6 | CC(C)c1c(C(=O)NCc2ccc(F)c(F)c2)c2ccc(OC3CCCC3)cc2n1Cc1ccccc1 [Compound 16, 1-Benzyl-6-(cyclopentoxy)-N-(3,4-difluorobenzyl)-2-isopropyl-1H-indole-3-carboxamide] | – | – | – | 3 nM (100) 1.2 nM % | 8.52 | 1.2
7 | COCCOc1ccc2c(C(=O)NCc3ccc(F)c(F)c3)c(C(C)C)n(Cc3ccccc3)c2c1 [Compound 17, 1-Benzyl-N-(3,4-difluorobenzyl)-2-isopropyl-6-(2-methoxyethoxy)-1H-indole-3-carboxamide] | – | 8.19 | 99 | – | – | –
8 | CC(C)c1c(C(=O)NCc2ccc(F)c(F)c2)c2ccc(OCCN(C)C)cc2n1Cc1ccccc1 [Compound 18, 1-Benzyl-N-(3,4-difluorobenzyl)-6-(2-(dimethylamino)ethoxy)-2-isopropyl-1H-indole-3-carboxamide] | – | 6.62 | 94 | – | – | –
9 | CC(C)c1c(C(=O)NCc2ccc(F)c(F)c2)c2ccc(OC3CCOC3)cc2n1Cc1ccccc1 (centres unmarked) [Compound 19, 1-Benzyl-N-(3,4-difluorobenzyl)-2-isopropyl-6-(tetrahydrofuran-3-yloxy)-1H-indole-3-carboxamide] | – | 8.22 | 100 | – | – | –
10 | CC(C)c1c(C(=O)NCc2ccc(F)c(F)c2)c2ccc(OC3CCOC3=O)cc2n1Cc1ccccc1 (centres unmarked) [Compound 20, 1-Benzyl-N-(3,4-difluorobenzyl)-2-isopropyl-6-(2-oxotetrahydrofuran-3-yloxy)-1H-indole-3-carboxamide] | – | 7.09 | 100 | – | – | –
11 | CC(C)c1c(C(=O)NCc2ccc(F)c(F)c2)c2ccc(OC(=O)N(C)C)cc2n1Cc1ccccc1 [Compound 21, 1-benzyl-3-(3,4-difluorobenzylcarbamoyl)-2-isopropyl-1H-indol-6-yl Dimethylcarbamate] | – | 7.62 | 99 | – | – | –
12 | CC(C)c1c(C(=O)NCc2ccc(F)c(F)c2)c2ccc(OC(=O)C(C)(C)C)cc2n1Cc1ccccc1 [Compound 22, 1-Benzyl-3-(3,4-difluorobenzylcarbamoyl)-2-isopropyl-1H-indol-6-yl Pivalate] | – | – | – | 4 nM (99) % | 8.40 | –
13 | CC(=O)Oc1ccc2c(C(=O)NCc3ccc(F)c(F)c3)c(C(C)C)n(Cc3ccccc3)c2c1 [Compound 23, 1-Benzyl-3-(3,4-difluorobenzylcarbamoyl)-2-isopropyl-1H-indol-6-yl Acetate] | – | – | – | 14 nM (100) % | 7.85 | –
14 | CCC(=O)Oc1ccc2c(C(=O)NCc3ccc(F)c(F)c3)c(C(C)C)n(Cc3ccccc3)c2c1 [Compound 24, 1-Benzyl-3-(3,4-difluorobenzylcarbamoyl)-2-isopropyl-1H-indol-6-yl Propionate] | – | – | – | 20 nM (100) % | 7.70 | –
15 | CC(C)C(=O)Oc1ccc2c(C(=O)NCc3ccc(F)c(F)c3)c(C(C)C)n(Cc3ccccc3)c2c1 [Compound 25, 1-Benzyl-3-(3,4-difluorobenzylcarbamoyl)-2-isopropyl-1H-indol-6-yl Isobutyrate] | – | – | – | 14 nM (100) % | 7.85 | –
16 | COCOc1ccc2c(C(=O)NCc3ccc(F)c(F)c3)c(C(C)C)n(Cc3ccccc3)c2c1 [Compound 26, 1-Benzyl-N-(3,4-difluorobenzyl)-2-isopropyl-6-(methoxymethoxy)-1H-indole-3-carboxamide] | – | – | – | 39 nM (100) 13 nM % | 7.41 | 13
17 | CC(C)c1c(C(=O)NCc2ccc(F)c(F)c2)c2ccc(OC3CCCO3)cc2n1Cc1ccccc1 (centres unmarked) [Compound 27, 1-Benzyl-N-(3,4-difluorobenzyl)-2-isopropyl-6-(tetrahydrofuran-2-yloxy)-1H-indole-3-carboxamide] | – | – | – | 6 nM (100) 11 nM % | 8.22 | 11
18 | CCOC(=O)c1ccc2c(C(=O)NCc3ccc(F)c(F)c3)c(C(C)C)n(Cc3ccccc3)c2c1 [Compound 43, Ethyl 1-Benzyl-3-(3,4-difluorobenzylcarbamoyl)-2-isopropyl-1H-indole-6-carboxylate] | 8 | 8.15 | 100 | – | – | –
19 | CCOC(=O)c1ccc2c(C(=O)NCc3cncc(F)c3)c(C(C)C)n(Cc3ccccc3)c2c1 [Compound 44, Ethyl 1-Benzyl-3-((5-fluoropyridin-3-yl)methylcarbamoyl)-2-isopropyl-1H-indole-6-carboxylate] | – | – | – | 24 nM (100) % | 7.62 | –
20 | CCOC(=O)c1ccc2c(C(=O)NCc3ccc(F)c(F)c3)c(C(C)C)n(Cc3cccnc3)c2c1 [Compound 46, Ethyl 3-(3,4-Difluorobenzylcarbamoyl)-2-isopropyl-1-(pyridin-3-ylmethyl)-1H-indole-6-carboxylate] | – | – | – | 241 nM (100) % | 6.62 | –
21 | CCOC(=O)c1ccc2c(C(=O)NCc3ccc(F)c(F)c3)c(C(C)C)n(Cc3ncco3)c2c1 [Compound 47, Ethyl 3-(3,4-Difluorobenzylcarbamoyl)-2-isopropyl-1-(oxazol-2-ylmethyl)-1H-indole-6-carboxylate] | – | 6.46 | 100 | – | – | –
22 | CCOC(=O)c1ccc2c(C(=O)NCc3cc(F)cc(F)c3)c(C(C)C)n(Cc3ccccn3)c2c1 [Compound 48, Ethyl 3-(3,5-Difluorobenzylcarbamoyl)-2-isopropyl-1-(pyridin-2-ylmethyl)-1H-indole-6-carboxylate] | – | 7.62 | 100 | – | – | –
23 | CCOC(=O)c1ccc2c(C(=O)NCc3cncc(F)c3)c(C(C)C)n(Cc3ccccn3)c2c1 [Compound 49, Ethyl 3-((5-Fluoropyridin-3-yl)methylcarbamoyl)-2-isopropyl-1-(pyridin-2-ylmethyl)-1H-indole-6-carboxylate] | – | 6.06 | 100 | – | – | –
24 | CCOC(=O)c1ccc2c(C(=O)NCc3ccc(F)cc3)c(C(C)C)n(Cc3ccccn3)c2c1 [Compound 50, Ethyl 3-(4-Fluorobenzylcarbamoyl)-2-isopropyl-1-(pyridin-2-ylmethyl)-1H-indole-6-carboxylate] | – | 7.16 | 100 | – | – | –
25 | CC(C)c1c(C(=O)NCc2ccc(F)c(F)c2)c2ccc(CO)cc2n1Cc1ccccc1 [Compound 52, 1-Benzyl-N-(3,4-difluorobenzyl)-6-(hydroxymethyl)-2-isopropyl-1H-indole-3-carboxamide] | – | 5.70 | 85 | – | – | –
26 | CC(C)c1c(C(=O)NCc2ccc(F)c(F)c2)c2ccc(/C=N/O)cc2n1Cc1ccccc1 [Compound 55, (E)-1-Benzyl-N-(3,4-difluorobenzyl)-6-((hydroxyimino)methyl)-2-isopropyl-1H-indole-3-carboxamide] | – | 6.63 | 100 | – | – | –
27 | C#CCNC(=O)c1ccc2c(C(=O)NCc3ccc(F)c(F)c3)c(C(C)C)n(Cc3ccccc3)c2c1 [Compound 69, 1-Benzyl-N3-(3,4-difluorobenzyl)-2-isopropyl-N6-(prop-2-ynyl)-1H-indole-3,6-dicarboxamide] | – | 5.30 | 98 | – | – | –
28 | CC(C)c1c(C(=O)NCc2ccc(F)c(F)c2)c2ccc(C3=NCCO3)cc2n1Cc1ccccc1 [Compound 70, 1-Benzyl-N-(3,4-difluorobenzyl)-6-(4,5-dihydrooxazol-2-yl)-2-isopropyl-1H-indole-3-carboxamide] | – | – | – | 36 nM (100) % | 7.44 | –
29 | CC(C)c1c(C(=O)NCc2ccc(F)c(F)c2)c2ccc(C3=NC(C)(C)CO3)cc2n1Cc1ccccc1 [Compound 71, 1-Benzyl-N-(3,4-difluorobenzyl)-6-(4,4-dimethyl-4,5-dihydrooxazol-2-yl)-2-isopropyl-1H-indole-3-carboxamide] | – | 7.33 | 97 | – | – | –
